# Results: PubChem BioAssay (NCI)
#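 Exposure lasted 48 hours, with cells grown in 96-well plates and compounds tested at five concentrations. GI50: concentration for 50% inhibition of growth. TGI denotes the concentration required for complete inhibition of growth.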
# Assays:
# Assay in all cases: growth of human tumour cells (NCI), 48 h
# [1] = tested on: DU-145 prostate
# [2] = tested on: HL-60(TB) leukemia
# [3] = tested on: EKVX NSCLC
# [4] = tested on: SF-539 CNS
# [5] = tested on: KM12 colon
# [6] = tested on: MDA-MB-435
# [7] = tested on: OVCAR-5 ovarian
# [8] = tested on: UACC-62 melanoma
# [9] = tested on: MCF7 breast
# [10] = tested on: HOP-62 NSCLC
# [11] = tested on: NCI-H460 lung
# [12] = tested on: RPMI-8226 leukemia
# [13] = tested on: UO-31 renal
# [14] = tested on: HCC-2998 colon
# [15] = tested on: SF-295 CNS
# [16] = tested on: K-562 leukemia
# [17] = tested on: SNB-19 CNS
# [18] = tested on: COLO 205 colon
# [19] = tested on: T-47D breast
# [20] = tested on: LOX IMVI melanoma
# [21] = tested on: HCT-116 colon
# [22] = tested on: NCI/ADR-RES ovarian
# [23] = tested on: HCT-15 colon
# [24] = tested on: PC-3 prostate
# [25] = tested on: SW-620 colon
# [26] = tested on: MDA-MB-231 breast
# [27] = tested on: ACHN renal
# [28] = tested on: OVCAR-3 ovarian
# [29] = tested on: HOP-92 NSCLC
# [30] = tested on: M14 melanoma
# [31] = tested on: CAKI-1 renal
# [32] = tested on: SN12C renal
# [33] = tested on: HS 578T breast
# [34] = tested on: TK-10 renal
# [35] = tested on: HT29 colon
# [36] = tested on: A549 NSCLC
# [37] = tested on: SK-MEL-2 melanoma
# [38] = tested on: UACC-257 melanoma
# [39] = tested on: SF-268 CNS
# [40] = tested on: NCI-H23 lung
# [41] = tested on: U251 CNS
# [42] = tested on: IGROV1 ovarian
# [43] = tested on: A498 renal
# [44] = tested on: SK-MEL-5 melanoma
# [45] = tested on: MALME-3M melanoma
# [46] = tested on: SK-OV-3 ovarian
# [47] = tested on: OVCAR-8 ovarian
# [48] = tested on: BT-549 breast
# [49] = tested on: MOLT-4 leukemia
# [50] = tested on: NCI-H226 lung
# [51] = tested on: RXF 393 renal
# [52] = tested on: SNB-75 CNS
# [53] = tested on: SK-MEL-28 melanoma
# [54] = tested on: CCRF-CEM leukemia
# [55] = tested on: OVCAR-4 ovarian
# [56] = tested on: 786-0 renal
# [57] = tested on: NCI-H522 lung
smiles,measurement,setting,value
O=C1c2ccccc2-c2c1c1ccccc1c(=O)n2CCNCCNCCNCCn1c2c(c3ccccc3c1=O)C(=O)c1ccccc1-2,GI50,[1],0.33 µM
same,TGI,[1],1.76 µM
same,GI50,[2],1.8 µM
same,GI50,[3],1.28 µM
same,TGI,[3],2.81 µM
same,GI50,[4],0.273 µM
same,TGI,[4],1.58 µM
same,GI50,[5],0.669 µM
same,TGI,[5],3.22 µM
same,GI50,[6],0.993 µM
same,TGI,[6],4.7 µM
same,GI50,[7],0.449 µM
same,GI50,[8],0.379 µM
same,TGI,[8],1.54 µM
same,GI50,[9],0.0329 µM
same,TGI,[9],0.298 µM
same,GI50,[10],0.0483 µM
same,TGI,[10],2.45 µM
same,GI50,[11],0.0707 µM
same,TGI,[11],> 100 µM
same,GI50,[12],0.0499 µM
same,GI50,[13],1.12 µM
same,TGI,[13],2.64 µM
same,GI50,[14],0.591 µM
same,TGI,[14],6.11 µM
same,GI50,[15],1.4 µM
same,TGI,[15],7.58 µM
same,GI50,[16],0.253 µM
same,GI50,[17],2.35 µM
same,TGI,[17],> 100 µM
same,GI50,[18],1.76 µM
same,TGI,[18],> 20.3 µM
same,GI50,[19],2.95 µM
same,TGI,[19],> 100 µM
same,GI50,[20],0.0709 µM
same,TGI,[20],0.572 µM
same,GI50,[21],0.111 µM
same,TGI,[21],> 100 µM
same,GI50,[22],3.9 µM
same,TGI,[22],> 54.9 µM
same,GI50,[23],0.579 µM
same,TGI,[23],2.11 µM
same,GI50,[24],0.373 µM
same,TGI,[24],1.33 µM
same,GI50,[25],0.194 µM
same,TGI,[25],> 100 µM
same,GI50,[26],0.136 µM
same,TGI,[26],1.01 µM
same,GI50,[27],0.0536 µM
same,TGI,[27],0.555 µM
same,GI50,[28],1.16 µM
same,TGI,[28],4.91 µM
same,GI50,[29],2.9 µM
same,TGI,[29],> 100 µM
same,GI50,[30],1.61 µM
same,TGI,[30],3.5 µM
same,GI50,[31],1.44 µM
same,TGI,[31],4.19 µM
Cc1nc2sccn2c1-c1csc(Nc2ccccc2Cl)n1,GI50,[1],7.87 µM
same,TGI,[1],68.8 µM
same,GI50,[32],3.58 µM
same,TGI,[32],> 100 µM
same,GI50,[2],3 µM
same,TGI,[2],29.2 µM
same,GI50,[33],6.92 µM
same,TGI,[33],> 100 µM
same,GI50,[4],3.2 µM
same,TGI,[4],16.3 µM
same,GI50,[5],2.61 µM
same,TGI,[5],24.5 µM
same,GI50,[34],4.44 µM
same,TGI,[34],48.8 µM
same,GI50,[6],0.69 µM
same,TGI,[6],8.61 µM
same,GI50,[35],3.08 µM
same,TGI,[35],13.6 µM
same,GI50,[36],2.98 µM
same,TGI,[36],44.4 µM
same,GI50,[7],9.58 µM
same,TGI,[7],75.1 µM
same,GI50,[37],3.83 µM
same,TGI,[37],17.9 µM
same,GI50,[8],3.05 µM
same,TGI,[8],23.3 µM
same,GI50,[38],3.69 µM
same,TGI,[38],17.9 µM
same,GI50,[39],8.33 µM
same,TGI,[39],86.5 µM
same,GI50,[40],2.28 µM
same,TGI,[40],35.4 µM
same,GI50,[41],3.7 µM
same,TGI,[41],24.1 µM
same,GI50,[9],2.81 µM
same,TGI,[9],23 µM
same,GI50,[42],5.45 µM
same,TGI,[42],50 µM
same,GI50,[43],1.24 µM
same,TGI,[43],12.7 µM
same,GI50,[10],4.75 µM
same,TGI,[10],70.5 µM
same,GI50,[11],3.19 µM
same,TGI,[11],15.8 µM
same,GI50,[12],1.93 µM
same,TGI,[12],19.1 µM
same,GI50,[44],2.15 µM
same,TGI,[44],10.3 µM
same,GI50,[13],3.21 µM
same,TGI,[13],33.6 µM
same,GI50,[45],3.55 µM
same,TGI,[45],22.1 µM
same,GI50,[46],8.4 µM
same,TGI,[46],75.2 µM
same,GI50,[47],6.05 µM
same,TGI,[47],45.2 µM
same,GI50,[14],6.25 µM
same,TGI,[14],45.3 µM
same,GI50,[48],3.6 µM
same,TGI,[48],23.4 µM
same,GI50,[15],1.55 µM
same,TGI,[15],5.98 µM
same,GI50,[16],0.586 µM
same,TGI,[16],17.1 µM
same,GI50,[17],10.3 µM
same,TGI,[17],> 100 µM
same,GI50,[49],3.28 µM
same,TGI,[49],17 µM
same,GI50,[18],5.87 µM
same,TGI,[18],21 µM
same,GI50,[50],3.38 µM
same,TGI,[50],45.1 µM
same,GI50,[19],2.33 µM
same,TGI,[19],66.5 µM
same,GI50,[20],4.4 µM
same,TGI,[20],21.6 µM
same,GI50,[21],3.3 µM
same,TGI,[21],16.2 µM
same,GI50,[22],2.61 µM
same,TGI,[22],14.5 µM
same,GI50,[51],1.9 µM
same,TGI,[51],7.09 µM
same,GI50,[23],2.64 µM
same,TGI,[23],32.5 µM
same,GI50,[24],4.09 µM
same,TGI,[24],37.5 µM
same,GI50,[25],3.22 µM
same,TGI,[25],25.9 µM
same,GI50,[52],4.08 µM
same,TGI,[52],60.3 µM
same,GI50,[53],6.24 µM
same,TGI,[53],> 100 µM
same,GI50,[26],3.33 µM
same,TGI,[26],27 µM
same,GI50,[54],3.32 µM
same,TGI,[54],53.2 µM
same,GI50,[27],4.52 µM
same,TGI,[27],62.3 µM
same,GI50,[28],3.18 µM
same,TGI,[28],19.1 µM
same,GI50,[55],2.35 µM
same,TGI,[55],83.5 µM
same,GI50,[29],0.798 µM
same,TGI,[29],7.08 µM
same,GI50,[30],3.38 µM
same,TGI,[30],18 µM
same,GI50,[31],3.06 µM
same,TGI,[31],40.7 µM
same,GI50,[56],3.47 µM
same,TGI,[56],15.7 µM
same,GI50,[57],2.08 µM
same,TGI,[57],15.7 µM
